The text below walks through data of PubChem BioAssay (NCI).

Each structure is given as a SMILES string.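 A five-concentration, 48-hour dose response in 96-well plates underlies each endpoint, interpolated linearly between surrounding concentrations. Here, GI50 denotes the concentration required for 50% inhibition of growth. Definition used: TGI = concentration required for complete inhibition of growth.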

Test systems include SF-295 CNS; HOP-62 NSCLC; MCF7 breast; HT29 colon; HCT-15 colon; MDA-MB-435; IGROV1 ovarian; UACC-257 melanoma; RXF 393 renal; HL-60(TB) leukemia.
What all share (test): NCI anticancer screen, dose series, 48 h

In the case of `COc1cc(OC)c(C(=O)/C=C/c2cccc(C#N)c2)c(OC)c1`, the GI50 is 1.31 µM in the experiment on SF-295 CNS; 1.33 µM in the experiment on HOP-62 NSCLC; 1.33 µM in the experiment with MCF7 breast; 1.69 µM with HT29 colon; 0.853 µM with HCT-15 colon; 1.42 µM in the experiment on MDA-MB-435. Also, the GI50 was 1.55 µM in the experiment with IGROV1 ovarian, 2.1 µM in the experiment with UACC-257 melanoma and 0.797 µM with RXF 393 renal. The TGI was 5.51 µM in the experiment with SF-295 CNS; 4.55 µM in the experiment on HOP-62 NSCLC; 6.72 µM with MCF7 breast; 5.87 µM in the experiment with HT29 colon; 3.02 µM in the experiment on HCT-15 colon; 6.38 µM with MDA-MB-435. The TGI in the experiment on IGROV1 ovarian stood at 5.91 µM; with UACC-257 melanoma, 8.69 µM; in the experiment with RXF 393 renal, 2.05 µM.

Regarding `Cc1cn2c(/C=C3/C(=O)Nc4ccc(O)cc43)c(C)nc2s1`, the GI50 in the experiment with SF-295 CNS was 1.73 µM; with HOP-62 NSCLC, 2.89 µM; in the experiment with MCF7 breast, 1.6 µM; in the experiment with HT29 colon it was 2.47 µM; in the experiment with HCT-15 colon it was 3.78 µM; in the experiment on MDA-MB-435, 0.169 µM. The GI50 is 7.23 µM in the experiment with IGROV1 ovarian, 7.85 µM in the experiment with UACC-257 melanoma and 2.89 µM in the experiment with RXF 393 renal. The TGI in the experiment with SF-295 CNS was 8.08 µM; in the experiment with HOP-62 NSCLC it was over 68 µM; with MCF7 breast, over 33.6 µM; in the experiment with HT29 colon it was over 100 µM; in the experiment on HCT-15 colon, over 58.5 µM; in the experiment on MDA-MB-435, 1.15 µM. In addition, the TGI is over 100 µM in the experiment with IGROV1 ovarian, over 47.1 µM with UACC-257 melanoma and over 72.5 µM in the experiment with RXF 393 renal.

In the case of `Cn1cccc1-c1cc(-c2ccc(Br)cc2)[nH]c(=O)c1C#N`, the GI50 in the experiment with SF-295 CNS, with HOP-62 NSCLC, in the experiment on MCF7 breast, with HT29 colon, in the experiment with HCT-15 colon and in the experiment on MDA-MB-435 was over 100 µM throughout. For the same compound, the GI50 in the experiment on IGROV1 ovarian was 77.2 µM; with UACC-257 melanoma it was over 100 µM; in the experiment with RXF 393 renal it was over 100 µM. Also, the TGI in the experiment on SF-295 CNS, in the experiment with HOP-62 NSCLC, with MCF7 breast, in the experiment on HT29 colon, with HCT-15 colon and in the experiment on MDA-MB-435 was over 100 µM each time. Besides, the TGI in the experiment with IGROV1 ovarian, in the experiment on UACC-257 melanoma and in the experiment on RXF 393 renal was over 100 µM in each case.

Turning to `COc1ccc(C(=O)/C=C/c2cccc(Nc3ccnc4cc(Cl)ccc34)c2)cc1`, the GI50 in the experiment with SF-295 CNS is 0.694 µM; in the experiment with HL-60(TB) leukemia it was 2.98 µM; with HOP-62 NSCLC, 1.44 µM; in the experiment with MCF7 breast it was 1.82 µM; in the experiment on HT29 colon, 1.64 µM; in the experiment with HCT-15 colon, 2.04 µM. For the same compound, the GI50 was 2.13 µM in the experiment on MDA-MB-435, 1.44 µM with IGROV1 ovarian and 1.82 µM with RXF 393 renal. The TGI in the experiment on SF-295 CNS was 16.3 µM; with HL-60(TB) leukemia, over 100 µM; in the experiment with HOP-62 NSCLC, 3.99 µM; in the experiment on MCF7 breast, over 100 µM; with HT29 colon, over 100 µM; in the experiment on HCT-15 colon it was over 100 µM. Further, the TGI in the experiment with MDA-MB-435 is over 100 µM; with IGROV1 ovarian it was 6.53 µM; in the experiment with RXF 393 renal, 5.17 µM.

As for `COc1cc([N+](=O)[O-])c(OC)cc1-c1nc2sccn2c1/C=N/N=C(N)N`, the GI50 was 19.5 µM in the experiment with SF-295 CNS; 13.6 µM in the experiment on HOP-62 NSCLC; 22 µM with MCF7 breast; 82.1 µM in the experiment on HT29 colon; 26.3 µM with HCT-15 colon; 15.5 µM in the experiment with MDA-MB-435. Besides, the results for the GI50 in the experiment with IGROV1 ovarian, in the experiment with UACC-257 melanoma and with RXF 393 renal were 10.4 µM, 21.5 µM and 50.1 µM, respectively. The TGI in the experiment on SF-295 CNS was over 100 µM; with HOP-62 NSCLC, 46.9 µM; in the experiment with MCF7 breast, over 100 µM; in the experiment on HT29 colon, over 100 µM; in the experiment on HCT-15 colon, 72.4 µM; in the experiment on MDA-MB-435, 52.3 µM. Moreover, the TGI in the experiment with IGROV1 ovarian was 50 µM; with UACC-257 melanoma it was 54.2 µM; with RXF 393 renal it was over 100 µM.

For `COc1cccc(-c2cc3c4c(nc5ccccc53)C(=O)c3cccnc3-c4n2)c1`, the GI50 with SF-295 CNS was 2.34 µM; in the experiment on HOP-62 NSCLC, 4.2 µM; in the experiment on MCF7 breast, 0.418 µM; in the experiment with HT29 colon, 2.49 µM; in the experiment with HCT-15 colon it was 1.52 µM; in the experiment with MDA-MB-435 it was 1.18 µM. Also, the GI50 with IGROV1 ovarian is 3.37 µM; in the experiment with UACC-257 melanoma it was 1.06 µM; with RXF 393 renal it was 2.47 µM. The TGI with SF-295 CNS is 6.44 µM; in the experiment with HOP-62 NSCLC it was 12.3 µM; in the experiment on MCF7 breast, over 100 µM; in the experiment with HT29 colon, 6.19 µM; in the experiment with HCT-15 colon it was 4.44 µM; with MDA-MB-435 it was 2.57 µM. The TGI in the experiment on IGROV1 ovarian turned out to be 14.4 µM; with UACC-257 melanoma it was 4.33 µM; in the experiment with RXF 393 renal, 9.91 µM.

`CC(C)(C)c1[nH]nc2c1C(c1cc3ccccc3[nH]c1=O)Nc1cc(C(=O)OCc3ccccc3)ccc1N2` (centres undefined): the GI50 was 3.17 µM with SF-295 CNS; 3.66 µM with HL-60(TB) leukemia; 6.37 µM in the experiment on HOP-62 NSCLC; 3.37 µM in the experiment with MCF7 breast; 2.75 µM with HT29 colon; 4.65 µM in the experiment on HCT-15 colon. In addition, the GI50 in the experiment on MDA-MB-435 was 2.95 µM; in the experiment with IGROV1 ovarian, 4.32 µM; in the experiment on UACC-257 melanoma it was 2.71 µM. The TGI was 38.5 µM in the experiment with SF-295 CNS; over 100 µM in the experiment with HL-60(TB) leukemia; over 100 µM in the experiment on HOP-62 NSCLC; over 100 µM in the experiment with MCF7 breast; 6.52 µM with HT29 colon; over 100 µM with HCT-15 colon. Also, the TGI with MDA-MB-435, in the experiment with IGROV1 ovarian and with UACC-257 melanoma was over 100 µM each time.

On to `COc1ccc(N(/C=C/C(=O)C(F)(F)F)CC(=O)c2ccc(F)cc2)cc1`, for which the GI50 in the experiment with SF-295 CNS was 27.4 µM; in the experiment on HOP-62 NSCLC it was 20 µM; in the experiment on MCF7 breast it was 43.1 µM; in the experiment on HT29 colon it was 46.2 µM; in the experiment on HCT-15 colon, 16 µM; in the experiment on MDA-MB-435 it was 19.9 µM. For the same compound, the GI50 with IGROV1 ovarian is 13 µM; with UACC-257 melanoma it was 23.7 µM; in the experiment with RXF 393 renal, 28.8 µM. For the same compound, the TGI is 91 µM in the experiment on SF-295 CNS; 44.9 µM with HOP-62 NSCLC; over 100 µM in the experiment with MCF7 breast; over 100 µM in the experiment with HT29 colon; 38.7 µM in the experiment on HCT-15 colon; 52.2 µM in the experiment on MDA-MB-435. For the same compound, the TGI turned out to be 30.7 µM with IGROV1 ovarian, 64.8 µM with UACC-257 melanoma and 77.4 µM in the experiment on RXF 393 renal.
